Earlier results as cited in US20100047365A1, “WHEAT-GERM OIL CONCENTRATE, A METHOD FOR THE PRODUCTION THEREOF, A METHOD FOR PRODUCING WHEAT-GERM OIL, AND A MEDICINAL AND PROPHYLACTIC COMPOSITION BASED THEREON FOR RESTORATION OF DISORDERS IN SEXUAL FUNCTIONS” (OTKRYTOE AKTSIONERNOE, priority 2006, published 2010).

Settings: relative ranking of tocopherol forms

Row | Compound | antioxidant activity
1 | Cc1c(C)c2c(c(C)c1O)CC[C@@](C)(CCC[C@H](C)CCC[C@H](C)CCCC(C)C)O2 [α-tocopherol] | 0.3
2 | Cc1cc(O)c(C)c2c1O[C@](C)(CCC[C@H](C)CCC[C@H](C)CCCC(C)C)CC2 [β-tocopherol] | 0.45
3 | Cc1cc(O)cc2c1O[C@](C)(CCC[C@H](C)CCC[C@H](C)CCCC(C)C)CC2 [δ-tocopherol] | 1.0
4 | tocopherol | 0.6
